Legend:
[1] = Fluorescence quantum yield and lifetime in benzonitrile (PhCN); format: physicochemical
Method: (B) Fluorescence decay curve of 4 observed at 787 nm. Excitation wavelength: 651 nm.
Instrumentation: Measurement of fluorescence quantum yields were carried out on a Hamamatsu C9920-0X(PMA-12) U6039-05 fluorescence spectrofluorometer. Femtosecond laser flash photolysis was conducted using a Clark-MXR 2010 laser system and an optical detection system provided by Ultrafast Systems (Helios). The source for the pump and probe pulses were derived from the fundamental output of Clark laser system (775 nm, 1 mJ pulse-1 and fwhm=150 fs) at a repetition rate of 1 kHz. A second harmonic generator introduced in the path of the laser beam provided […] laser pulses for excitation. A 95% of the fundamental output of the laser was used to generate the second harmonic, while 5% of the deflected output was used for white light generation. Prior to generating the probe continuum, the laser pulse was fed to a delay line that provided an experimental time window of 1.6 ns with a maximum step resolution of 7 fs. The pump beam was attenuated at 5 μJ pulse-1 with a spot size of 2 mm diameter at the sample cell where it was merged with the white probe pulse in a close angle (<10°). […] The photodynamics were monitored by continuous exposure to a xenon lamp for visible region and halogen lamp for near-IR region as a probe light and a photomultiplier tube (Hamamatsu 2949) as a detector.

[2] = Absorbance (UV-VIS) in methanol; format: physicochemical; details: ε665 for 2 (peak 660 nm), ε785 for 4 (peak 785 nm)
Method: Absorbance of 2 and 4 was measured using different concentrations in methanol on UV-VIS and indicates far-red peaks at 660 nm and 785 nm, with extinction coefficients ε665=47,500 L·mol^−1 cm^−1 and ε785=18,100 L·mol^−1 cm^−1 respectively.
Chemistry Methods: All reactions were carried out in heat gun-dried glassware under an atmosphere of nitrogen and magnetic stirring. Thin layer chromatography (TLC) was done on pre-coated silica gel sheets (layer thickness 0.2 mm). Column chromatography was performed either using silica gel 60 (70-230 mesh) or neutral alumina grade III. In some cases preparative TLC was used for the purification of compounds. Purity of the compounds was ascertained by TLC and HPLC analysis. All compounds including the intermediates were >95% pure. UV-visible spectra were recorded on FT UV-visible spectrophotometer using methanol as a solvent. Mass spectrometry analyses were performed at the Mass Spectrometry Facility, University at Buffalo, N.Y. Compounds 1 and 2 were synthesized by following the methodologies previously described.

Colon26 cells = test: In vitro cytotoxicity (PDT) MTT assay; format: cell-based; details: variable drug concentrations, fixed light dose 1.0 J/cm^2 (FIG. 8A)
Method: Drug concentrations were increased 10× (0.25 to 32.0 μM) and a significant cytotoxicity was observed only at high concentrations at the highest light dose.
Assessment of cell growth following treatment with compound solutions alone and after light exposure was determined by a colorimetric assay that measured the reduction of yellow 3-(4,5-dimethythiazol-2-yl)-2,5-diphenyl tetrazolium bromide (MTT) by mitochondrial succinate dehydrogenase.
Briefly cells were plated into 96 well plates, allowed to adhere to the plate and are treated with a range of compound concentrations for various lengths of time. The light source consisted of dye lasers (375; Spectra-Physics, Mt. View, Calif.) pumped by an argon-ion laser (either 171 or 2080; Spectra-Physics). The dye lasers were tuned to the appropriate wavelength for the compound being tested. Total light doses were ranged from 0.125 to 1.0 J/cm^2 at a fluence rate of 3.2 mW/cm^2. At 48 hours post PDT treatment, MTT was added. The solubilized formazan product was measured spectro-photometrically using a BIOTEK EL-800 plate reader. Data were processed using GEN5 software. A medium blank value was subtracted from all samples and Optical Density (O.D.) values of treated cells were divided by mean O.D. value of untreated cells for each light dose).
Colon26 cells were plated and allowed to adhere for 4 hours, then the photosensitizer was added and incubated at 37° C. for 24 hours. Plates were irradiated with 789 nm light from a dye laser at 3.2 mW/cm^2 for a total dose of 0.25 to 1.0 Joule/cm^2.

Colon26 tumors = test: In vivo PDT efficacy; set-up: species or system BALB/c mice
Method: Tumors were exposed to light (135 J/cm^2, 75 mW/cm^2) at 24 h (hour) postinjection (optimal time for tumor uptake for both the PSs).
For determining the in vivo imaging and therapeutic potential of 2, BALB/c mice (5-10 mice/group) bearing Colon26 tumors were used. In brief, 1×10^6 Colon26 cells were injected in mice subcutaneously. The tumors were left to grow for 1 week until they achieve the desired size (3-5 mm) for treatment. The photosensitizer was injected intravenously following the animal protocol approved by RPCI IACUC committee. Irradiance occurred 24 hours after i. v. injection; light dose was 135 J/cm^2 at a dose rate of 75 mW/cm^2 using the near-IR wavelengths of interest: 665 nm or 789 nm.
Two axes of the tumor (L, longest axis; W, shortest axis) were measured in millimeters with the aid of a Vernier caliper. Tumor weight (mg) was estimated as a formula: tumor weight=1/2 (L×W2). Tumor measurements were taken daily for the first 10 days and at least three tine a week for the first 4 weeks of post therapy and twice a week thereafter. Endpoints were 400 mm^3 tumor volume or 60 days.

[3] = Singlet oxygen NIR emission in O2-saturated C6D6 versus C60 standard; format: physicochemical; details: O2-saturated C6D6, excitation 532 nm, emission at 1270 nm compared with C60
Description: Excitation wavelength: 532 nm.
After monitoring absorption characteristics in several organic and aqueous solvents, it was hypothesized that the aggregation state of 4 could have contributed in decreasing the fluorescence and singlet oxygen quantum yields. The quantum yield of singlet oxygen from 4 was ΦO2=0.31 determined by the comparison of the emission intensity at 1270 nm as compared with C60 used as a standard (ΦO2=0.96) (FIG. 5).

Substance: methyl 3-[1′-(m-iodobenzyloxy)ethyl]-3-devinyl-13^3-keto-13^2-methoxycyclohexene [Compound 4]
- fluorescence lifetime ([1]; PhCN, decay observed at 787 nm, excitation 651 nm): 0.81 ns
- Fluorescence quantum yield Φ ([1]; benzonitrile (PhCN), excited at 532 nm): 0.013
- extinction coefficient at far-red absorbance peak [2]: 18,100 L·mol^−1 cm^−1
- in vitro cytotoxicity (in words) (Colon26 cells): did not produce any significant cell kill
- PDT efficacy compared with 2 (in words) (Colon26 tumors; BALB/c mice bearing Colon26 tumors): far lower than that of 2
- tumor cure after PDT (Colon26 tumors; dose 1 μmol/kg, light 135 J/cm^2, 75 mW/cm^2 at 24 h postinjection, 5 mice/group): no tumor cure
- long-term PDT efficacy at higher drug doses (in words) (Colon26 tumors; higher drug doses than 1 μmol/kg, light 135 J/cm^2, 75 mW/cm^2 at 24 h): no significant long-term PDT efficacy
- quantum yield of singlet oxygen ΦO2 [3]: 0.31
